# Target: T1, rat Kir3.1/3.4 (Rattus norvegicus, UniProt P48548+P63251)
# T1 construct: expressed in transfected cells; host or cells: HEK293 (Human Embryonic Kidney 293), stably transfected
# T1 sequence (P63251 1-501): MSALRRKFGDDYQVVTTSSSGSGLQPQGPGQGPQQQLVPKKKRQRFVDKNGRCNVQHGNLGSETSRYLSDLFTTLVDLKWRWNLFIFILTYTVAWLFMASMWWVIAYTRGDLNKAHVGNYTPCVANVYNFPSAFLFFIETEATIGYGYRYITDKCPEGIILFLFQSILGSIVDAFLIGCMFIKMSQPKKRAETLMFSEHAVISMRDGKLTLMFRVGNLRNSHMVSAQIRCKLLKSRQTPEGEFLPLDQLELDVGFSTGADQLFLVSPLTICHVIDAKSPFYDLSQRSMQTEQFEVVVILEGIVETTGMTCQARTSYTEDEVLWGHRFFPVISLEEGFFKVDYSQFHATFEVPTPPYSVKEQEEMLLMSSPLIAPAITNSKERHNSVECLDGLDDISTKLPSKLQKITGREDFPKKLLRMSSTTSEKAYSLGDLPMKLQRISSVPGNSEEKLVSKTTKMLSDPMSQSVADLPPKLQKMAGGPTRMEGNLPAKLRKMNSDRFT
# T1 sequence (P48548 1-419): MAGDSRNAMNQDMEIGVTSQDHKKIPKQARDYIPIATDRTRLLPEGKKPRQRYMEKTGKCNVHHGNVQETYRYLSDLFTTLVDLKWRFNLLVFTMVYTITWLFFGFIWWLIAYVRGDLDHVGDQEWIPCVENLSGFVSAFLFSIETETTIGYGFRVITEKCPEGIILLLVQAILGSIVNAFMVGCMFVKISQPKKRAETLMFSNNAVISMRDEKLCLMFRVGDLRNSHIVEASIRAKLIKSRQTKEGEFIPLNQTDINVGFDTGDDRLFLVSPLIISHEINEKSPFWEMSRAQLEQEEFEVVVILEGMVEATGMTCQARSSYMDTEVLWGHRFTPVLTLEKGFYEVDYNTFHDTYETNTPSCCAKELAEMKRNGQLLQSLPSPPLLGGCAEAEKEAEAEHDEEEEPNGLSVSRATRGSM
# Experiment: Kir3.1/3.4 Electrophysiology Method (manual whole-cell patch clamp)
# Assay type: cell-based
# Settings: Human Embryonic Kidney 293 stably transfected with rat Kir3.1/3.4; inhibition of leak-subtracted current at -140 mV
# Protocol: Compound activity against the recombinant G-protein activated inward rectifier current encoded by the heterotetramer Kir3.1/3.4 was assessed using manual whole-cell patch technique. The heterotetramer forms the pore-forming channel that conducts the acetylcholine/adenosine-activated potassium current in the heart.
# For whole-cell patch-clamp studies, cells (Human Embryonic Kidney 293 stably transfected with rat Kir3.1/3.4) were seeded onto glass coverslips before recordings were made. Cells were seeded in sterile 30 mm Petri dishes at a density to enable isolated cells to be selected for patch clamp experiments. The dishes were stored in a humidified, gassed (5% CO2) incubator at 37° C. until use.
# Whole-cell patch-clamp recordings of membrane currents were made following gigaohm seal formation between the patch electrode and the cell using HEKA EPC-9/10 amplifiers controlled by Pulse Software (Ver8.5x/8.6x/8.7x, HEKA, Germany). Coverslips seeded with cells were placed in a recording chamber mounted on the stage of an inverted microscope. During the experiment, the cell of interest was continuously superfused with bather solution delivered via a cannula placed in close proximity to the cell to enable control of the extracellular solution environment. Only those cells with a current <−500 pA (current at −140 mV) were used for experiments. During experiments, series resistance was compensated by a minimum of 70%.
# Electrophysiology voltage-step protocols and analysis of data were performed as follows. Data was sampled at 5 kHz, and filtered with a −3 dB bandwidth of 2.5 kHz. Cells were held at a voltage of −60 mV. Currents were evoked by a depolarising voltage step to +60 mV (100 ms) before a ramp-repolarisation (0.4 V·s^−1) to −140 mV (100 ms) before returning to −60 mV. The command waveform was repeatedly applied every 10 s throughout the experiment. Mean currents during 1-99% of the time at −140 mV were analysed using Pulsefit software (v8.x, HEKA, Germany). The voltage protocol was repeatedly applied to achieve a stable current baseline in bather before the test substance was superfused via the cannula in close proximity to the cell under investigation. The test substance was allowed to equilibrate during which time voltage protocol was repeatedly applied and recorded. On reaching steady-state inhibition, the cell was superfused with an identical bather solution containing zero external potassium chloride (replaced by equimolar NaCl). The identical current measurement was made in the absence of potassium to assess the passive leak at −140 mV. The leak current was subtracted from the control and steady-state drug current values. The percentage inhibition of the leak-subtracted current in the presence of test substance was calculated relative to the control leak-subtracted pre-drug value. Internal patch-pipette solution contained in mM: 110 KCl, 20 NaCl, 0.9 GTPγS, 5 Mg-ATP, 5 EGTA, 10 HEPES, pH7.2 corrected with KOH. The external superfusate composition in mM was: 150 (or 160) NaCl, 10 (or 0) KCl, 3 CaCl2, 1 MgCl, 10 HEPES, pH 7.4 corrected with NaOH.
compound,measurement,value
"CNC(=O)c1sc2[nH]nc(N3CCC(COCCN4CCCC4)CC3)c2c1-c1ccccc1 [Compound 25, N-methyl-4-phenyl-3-[4-(2-pyrrolidin-1-ylethoxymethyl)-1-piperidyl]-1H-thieno[2,3-c]pyrazole-5-carboxamide]",IC50,< 500 nM

# Reference: patent US20140357662A1, “THIENO (2,3 - C) PYRAZOLES FOR USE AS POTASSIUM CHANNEL INHIBITORS” (XENTION LIMITED, priority 2011, published 2014)
